Test results published in PubChem BioAssay AID248 (DTP/NCI, 2004).
Several values for one entry are separate records, joined by “and”; a condition that tells them apart may be missing. Equal values may be shown once. Inconclusive results and toxic doses are left out. Cut-off read from the data, not from the text of the source: active = T/C of 150% or more; inactive = T/C below 125%.

Test system: L1210 leukemia ip in BDF1 mice, survival T/C
Assay: NCI In Vivo Anticancer Drug Screen. Data for tumor model L1210 Leukemia (intraperitoneal) in B6D2F1 (BDF1) mice
Conditions: endpoint: mean survival time, higher = longer survival
Procedure, shortened: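 Tumor was transplanted into mice, which were then dosed with test compound or vehicle alone. Survival was recorded for each group, and the treated figure was expressed relative to the control figure.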

[1] = dose: 50.0 mg/kg/injection, schedule: Q01DX009 (ip), vehicle: saline with Tween-80
[2] = dose: 100.0 mg/kg/injection, schedule: Q01DX009 (ip), vehicle: saline with Tween-80
[3] = dose: 100.0 mg/kg/injection, schedule: Q04DX003 (ip), vehicle: saline with Tween-80
[4] = dose: 200.0 mg/kg/injection, schedule: Q04DX003 (ip), vehicle: saline with Tween-80
[5] = dose: 100.0 mg/kg/injection, schedule: Q01DX001 (ip), vehicle: Klucel (hydroxypropylcellulose) (HPC)
[6] = dose: 100.0 mg/kg/injection, schedule: Q01DX001 (ip), vehicle: saline
[7] = dose: 200.0 mg/kg/injection, schedule: Q01DX001 (ip), vehicle: saline
[8] = dose: 400.0 mg/kg/injection, schedule: Q01DX001 (ip), vehicle: saline
[9] = dose: 50.0 mg/kg/injection, schedule: Q01DX009 (ip), vehicle: Klucel (hydroxypropylcellulose) (HPC)
[10] = dose: 100.0 mg/kg/injection, schedule: Q01DX009 (ip), vehicle: Klucel (hydroxypropylcellulose) (HPC)
[11] = dose: 100.0 mg/kg/injection, schedule: Q04DX003 (ip), vehicle: Klucel (hydroxypropylcellulose) (HPC)
[12] = dose: 200.0 mg/kg/injection, schedule: Q04DX003 (ip), vehicle: Klucel (hydroxypropylcellulose) (HPC)
[13] = dose: 400.0 mg/kg/injection, schedule: Q01DX009 (ip), vehicle: saline with Tween-80
[14] = dose: 400.0 mg/kg/injection, schedule: Q04DX003 (ip), vehicle: saline with Tween-80
[15] = dose: 200.0 mg/kg/injection, schedule: Q01DX001 (ip), vehicle: Klucel (hydroxypropylcellulose) (HPC)
[16] = dose: 400.0 mg/kg/injection, schedule: Q01DX001 (ip), vehicle: Klucel (hydroxypropylcellulose) (HPC)
[17] = dose: 200.0 mg/kg/injection, schedule: Q01DX009 (ip), vehicle: Klucel (hydroxypropylcellulose) (HPC)
[18] = dose: 400.0 mg/kg/injection, schedule: Q04DX003 (ip), vehicle: Klucel (hydroxypropylcellulose) (HPC)
[19] = dose: 400.0 mg/kg/injection, schedule: Q01DX009 (ip), vehicle: Klucel (hydroxypropylcellulose) (HPC)

Measured: T/C

N#CSc1c[nH]c2ccccc12
inactive: [1] 96 % of control | [2] 101 % of control | [3] 104 % of control | [4] 95 % of control

c1cnc2sccc2c1
inactive: [1] 113 % of control | [2] 95 % of control | [3] 102 % of control | [4] 103 % of control

O=C(CCN1CC=C(c2ccccc2)CC1)c1ccc(F)cc1
inactive: dose: 50.0 mg/kg/injection, schedule: Q01DX001 (ip), vehicle: Klucel (hydroxypropylcellulose) (HPC) 93 % of control | [5] 97 % of control

O=C1NCC(CCl)O1 (stereo not drawn)
inactive: [6] 101 % of control | [7] 91 % of control | [8] 101 % of control

Cc1c(C(=O)CCl)c(=O)n(-c2ccccc2)n1C
inactive: [9] 100 % of control | [10] 100 % of control | [11] 95 % of control | [12] 101 % of control

COc1ccccc1/C=C/C(=O)c1ccccc1
inactive: [2] 89 % of control | [3] 98 % of control | [4] 94 % of control | [13] 89 % of control | [14] 96 % of control

NC1CC(N)CC(N)C1 (stereo not drawn)
inactive: dose: 25.0 mg/kg/injection, schedule: Q04DX003 (ip), vehicle: saline 92 % of control | dose: 50.0 mg/kg/injection, schedule: Q04DX003 (ip), vehicle: saline 99 % of control | dose: 100.0 mg/kg/injection, schedule: Q04DX003 (ip), vehicle: saline 86 % of control and 91 % of control

CC12CCC(C(C(=O)O)C1=O)C2(C)C (stereo not drawn)
inactive: [3] 103 % of control | [4] 97 % of control | [14] 100 % of control

CC(C)=CCc1cc(OC(=O)OCc2ccccc2)c2ccccc2c1O
inactive: [5] 96 % of control | [15] 93 % of control | [16] 101 % of control

COCC1OC1(C(=O)c1ccccc1Cl)c1ccccc1Cl (stereo not drawn)
inactive: [6] 107 % of control | [7] 100 % of control | [8] 96 % of control

O=C(Nc1ccc(Cl)cc1)c1ccccc1
inactive: [9] 105 % of control | [10] 100 % of control | [11] 100 % of control | [17] 93 % of control | [12] 101 % of control | [18] 91 % of control

N#Cc1c2ccccc2c(=N)n2ccccc12
inactive: [5] 95 % of control | [11] 98 % of control | [15] 105 % of control | [12] 104 % of control | [16] 95 % of control | [18] 114 % of control

Cc1ccc(N=Nc2ccc(C)cc2NC(=O)c2ccc(Cl)cc2Cl)cc1
inactive: [10] 88 % of control | [17] 97 % of control | [19] 89 % of control

CCCCCCCC/C=C\CCCCCCCC(=O)OCCCCCCCCCCCCCCC
inactive: dose: 100.0 mg/kg/injection, schedule: Q01DX009 (ip), vehicle: other 96 % of control | dose: 200.0 mg/kg/injection, schedule: Q01DX009 (ip), vehicle: other 96 % of control | dose: 400.0 mg/kg/injection, schedule: Q01DX009 (ip), vehicle: other 96 % of control

Oc1c(Br)ccc2c(O)c(Br)ccc12
inactive: [3] 87 % of control | dose: 118.0 mg/kg/injection, schedule: Q01DX009 (ip), vehicle: saline with Tween-80 107 % of control | [4] 92 % of control | dose: 235.0 mg/kg/injection, schedule: Q01DX009 (ip), vehicle: saline with Tween-80 103 % of control | [14] 95 % of control | dose: 470.0 mg/kg/injection, schedule: Q01DX009 (ip), vehicle: saline with Tween-80 103 % of control

COc1cc2c(cc1OC)C(CC1=CCN3CCC4=C(C=CCC4)C3C1)NCC2 (stereo not drawn)
inactive: dose: 4.0 mg/kg/injection, schedule: Q04DX003 (ip), vehicle: water 106 % of control | dose: 8.0 mg/kg/injection, schedule: Q04DX003 (ip), vehicle: water 101 % of control | dose: 16.0 mg/kg/injection, schedule: Q04DX003 (ip), vehicle: water 102 % of control | dose: 32.0 mg/kg/injection, schedule: Q04DX003 (ip), vehicle: water 101 % of control | dose: 64.0 mg/kg/injection, schedule: Q04DX003 (ip), vehicle: water 112 % of control

Cc1c(N=Nc2ccccc2)c(=O)[nH]n1-c1ccccc1
inactive: [5] 105 % of control | [11] 111 % of control | [15] 107 % of control | [12] 106 % of control | [16] 103 % of control | [18] 96 % of control

CN1C2CC(OC3CCCCO3)C(C2)N1C (stereo not drawn)
inactive: [2] 95 % of control | [3] 94 % of control | dose: 132.0 mg/kg/injection, schedule: Q04DX003 (ip), vehicle: saline with Tween-80 100 % of control | dose: 200.0 mg/kg/injection, schedule: Q01DX009 (ip), vehicle: saline with Tween-80 100 % of control | [4] 102 % of control | dose: 300.0 mg/kg/injection, schedule: Q04DX003 (ip), vehicle: saline with Tween-80 117 % of control | [13] 93 % of control | [14] 102 % of control

O=C1NC(=S)NC(=O)C1=Cc1ccncc1
inactive: [6] 105 % of control | [7] 102 % of control | [8] 98 % of control

COc1ccc(C(=O)CC(C)C(=O)O)c(O)c1C (stereo not drawn)
inactive: [11] 95 % of control | [12] 98 % of control | [18] 96 % of control

Cc1ccc(Cl)cc1NC(=O)c1ccccc1C(=O)O
inactive: [10] 102 % of control | [11] 102 % of control | [17] 97 % of control | [12] 101 % of control | [19] 96 % of control | [18] 102 % of control

O=C(Nc1cccc(Cl)c1)Oc1ccc(S(=O)(=O)F)cc1Cl
inactive: dose: 100.0 mg/kg/injection, schedule: Q04DX002 (ip), vehicle: saline with Tween-80 94 % of control | dose: 200.0 mg/kg/injection, schedule: Q04DX002 (ip), vehicle: saline with Tween-80 91 % of control

NC(N)=N/N=C/c1ccc(F)cc1
inactive: dose: 15.0 mg/kg/injection, schedule: Q01DX Z (ip), vehicle: carboxymethylcellulose (CMC) 95 % of control | dose: 30.0 mg/kg/injection, schedule: Q01DX Z (ip), vehicle: carboxymethylcellulose (CMC) 101 % of control | dose: 60.0 mg/kg/injection, schedule: Q01DX Z (ip), vehicle: carboxymethylcellulose (CMC) 100 % of control and 109 % of control | dose: 120.0 mg/kg/injection, schedule: Q01DX Z (ip), vehicle: carboxymethylcellulose (CMC) 97 % of control

O=C(CCl)Nc1ncn[nH]1
inactive: dose: 75.0 mg/kg/injection, schedule: Q01DX001 (ip), vehicle: carboxymethylcellulose (CMC) 101 % of control | dose: 150.0 mg/kg/injection, schedule: Q01DX001 (ip), vehicle: carboxymethylcellulose (CMC) 97 % of control | dose: 300.0 mg/kg/injection, schedule: Q01DX001 (ip), vehicle: carboxymethylcellulose (CMC) 107 % of control

CCC/C(=N\Nc1ccc([N+](=O)[O-])cc1[N+](=O)[O-])c1cccc([N+](=O)[O-])c1
inactive: [11] 93 % of control | [12] 92 % of control | [18] 97 % of control

CC(=O)Nc1ccc(N=Cc2ccc([N+](=O)[O-])s2)cc1
inactive: [3] 100 % of control | [4] 96 % of control | [14] 98 % of control

COc1ccc(/C=C/C(=O)c2ccccc2)cc1OC
inactive: [9] 92 % of control and 103 % of control | [10] 105 % of control and 108 % of control | [11] 104 % of control | dose: 100.0 mg/kg/injection, schedule: Q04DX003 (ip), vehicle: water 93 % of control | [17] 99 % of control and 95 % of control | [12] 98 % of control | dose: 200.0 mg/kg/injection, schedule: Q04DX003 (ip), vehicle: water 102 % of control | [19] 93 % of control | [18] 91 % of control | dose: 400.0 mg/kg/injection, schedule: Q04DX003 (ip), vehicle: water 96 % of control

N#CC1CC2c3ccccc3C1([N+](=O)[O-])c1ccccc12 (stereo not drawn)
inactive: [5] 90 % of control | [10] 98 % of control | [15] 104 % of control | [17] 98 % of control | [16] 96 % of control | [19] 103 % of control

C=C1C(=O)O[C@H]2C1[C@H](OC(=O)/C(C)=C\COC(C)=O)C[C@]1(CO1)[C@@H]1[C@H](O)[C@H]3O[C@@]3(C)[C@@H]12 (stereo partly drawn)
inactive: dose: 25.0 mg/kg/injection, schedule: Q04DX002 (ip), vehicle: other 105 % of control | dose: 50.0 mg/kg/injection, schedule: Q04DX002 (ip), vehicle: other 103 % of control | dose: 100.0 mg/kg/injection, schedule: Q04DX002 (ip), vehicle: other 97 % of control and 100 % of control
